The values that follow come from ChEMBL document CHEMBL3593180, “Lipocarbazole, an efficient lipid peroxidation inhibitor anchored in the membrane” (Bioorg Med Chem, 2015).

The data set is described as follows: Antioxidant activity in soybean large unilamellar vesicles assessed as inhibition of AAPH-induced lipid peroxidation compound added prior to AAPH induction measured after 90 mins by UV-visible absorption spectrometric analysis. It counts as physicochemical.

`O=c1c(O)c(-c2ccc(O)c(O)c2)oc2cc(O)cc(O)c12` [QUERCETIN]: the half-inhibitory concentration (IC50) worked out at 200 nM.

With `CCCCCCCC/C=C/CCCCCCCc1c(C)c(O)cc2c1[nH]c1ccccc12`, the half-maximal inhibitory concentration (IC50) turned out to be 160 nM. In the case of VITAMIN E it was 800 nM; in that of `Cc1cc2[nH]c3ccccc3c2cc1O`, 1000 nM.
